PubChem BioAssay (NCI)
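Values below derive from 48-hour exposures of cells grown in 96-well plates, with endpoints linearly interpolated between the two concentrations bracketing the appropriate inhibition level. Abbreviation: GI50, concentration required for 50% inhibition of growth. Definition used: TGI = concentration required for complete inhibition of growth.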

Assays:
Assay in all cases: NCI tumour cell line growth inhibition, 48 h
EKVX NSCLC = tested on: EKVX NSCLC
NCI/ADR-RES ovarian = tested on: NCI/ADR-RES ovarian
LOX IMVI melanoma = tested on: LOX IMVI melanoma
T-47D breast = tested on: T-47D breast
MDA-MB-231 breast = tested on: MDA-MB-231 breast
UACC-62 melanoma = tested on: UACC-62 melanoma
ACHN renal = tested on: ACHN renal
786-0 renal = tested on: 786-0 renal
UO-31 renal = tested on: UO-31 renal
SK-MEL-5 melanoma = tested on: SK-MEL-5 melanoma
SK-MEL-2 melanoma = tested on: SK-MEL-2 melanoma
HCT-116 colon = tested on: HCT-116 colon
KM12 colon = tested on: KM12 colon
MALME-3M melanoma = tested on: MALME-3M melanoma
MCF7 breast = tested on: MCF7 breast
BT-549 breast = tested on: BT-549 breast
NCI-H23 lung = tested on: NCI-H23 lung
DU-145 prostate = tested on: DU-145 prostate
HT29 colon = tested on: HT29 colon
NCI-H226 lung = tested on: NCI-H226 lung
CCRF-CEM leukemia = tested on: CCRF-CEM leukemia
SF-295 CNS = tested on: SF-295 CNS
A549 NSCLC = tested on: A549 NSCLC
HOP-62 NSCLC = tested on: HOP-62 NSCLC
SW-620 colon = tested on: SW-620 colon
SN12C renal = tested on: SN12C renal
MDA-MB-435 = tested on: MDA-MB-435
UACC-257 melanoma = tested on: UACC-257 melanoma
SF-539 CNS = tested on: SF-539 CNS
NCI-H460 lung = tested on: NCI-H460 lung
M14 melanoma = tested on: M14 melanoma
A498 renal = tested on: A498 renal
HL-60(TB) leukemia = tested on: HL-60(TB) leukemia
MOLT-4 leukemia = tested on: MOLT-4 leukemia
RPMI-8226 leukemia = tested on: RPMI-8226 leukemia
SK-OV-3 ovarian = tested on: SK-OV-3 ovarian
IGROV1 ovarian = tested on: IGROV1 ovarian
OVCAR-3 ovarian = tested on: OVCAR-3 ovarian
K-562 leukemia = tested on: K-562 leukemia
OVCAR-8 ovarian = tested on: OVCAR-8 ovarian
U251 CNS = tested on: U251 CNS
SNB-19 CNS = tested on: SNB-19 CNS
HCT-15 colon = tested on: HCT-15 colon
COLO 205 colon = tested on: COLO 205 colon
HCC-2998 colon = tested on: HCC-2998 colon
SR leukemia = tested on: SR leukemia
OVCAR-5 ovarian = tested on: OVCAR-5 ovarian
HS 578T breast = tested on: HS 578T breast
SF-268 CNS = tested on: SF-268 CNS
OVCAR-4 ovarian = tested on: OVCAR-4 ovarian
SNB-75 CNS = tested on: SNB-75 CNS
TK-10 renal = tested on: TK-10 renal
CAKI-1 renal = tested on: CAKI-1 renal
RXF 393 renal = tested on: RXF 393 renal
HOP-92 NSCLC = tested on: HOP-92 NSCLC
SK-MEL-28 melanoma = tested on: SK-MEL-28 melanoma
PC-3 prostate = tested on: PC-3 prostate
NCI-H522 lung = tested on: NCI-H522 lung

## COc1ccc(C(=O)c2cc(OC)c(OC)c(OC)c2)cc1OC(=O)C(Cl)(Cl)Cl
EKVX NSCLC
  GI50: 3160 nM
  TGI: > 100000 nM
NCI/ADR-RES ovarian
  GI50: < 11 nM
  TGI: > 100000 nM
LOX IMVI melanoma
  GI50: < 13.4 nM
  TGI: > 100000 nM
T-47D breast
  GI50: 2400 nM
  TGI: > 100000 nM
MDA-MB-231 breast
  GI50: 158 nM
  TGI: > 100000 nM
UACC-62 melanoma
  GI50: 628 nM
  TGI: > 100000 nM
ACHN renal
  GI50: 32.9 nM
  TGI: > 100000 nM
786-0 renal
  GI50: 587 nM
  TGI: > 100000 nM
UO-31 renal
  GI50: 540 nM
  TGI: > 100000 nM
SK-MEL-5 melanoma
  GI50: 32.5 nM
  TGI: 329 nM
SK-MEL-2 melanoma
  GI50: 85300 nM
  TGI: > 100000 nM
HCT-116 colon
  GI50: 28.4 nM
  TGI: > 100000 nM
KM12 colon
  GI50: < 10 nM
  TGI: > 100000 nM
MALME-3M melanoma
  TGI: > 100000 nM
MCF7 breast
  GI50: 27.2 nM
  TGI: > 100000 nM
BT-549 breast
  GI50: 11.8 nM
  TGI: 880 nM
NCI-H23 lung
  GI50: 62.7 nM
  TGI: > 100000 nM
DU-145 prostate
  GI50: 28.4 nM
  TGI: > 100000 nM
HT29 colon
  GI50: 2000 nM
  TGI: > 100000 nM
NCI-H226 lung
  GI50: 15400 nM
  TGI: > 100000 nM
CCRF-CEM leukemia
  GI50: < 18.3 nM
  TGI: > 100000 nM
SF-295 CNS
  GI50: 79.2 nM
  TGI: > 100000 nM
A549 NSCLC
  GI50: 154 nM
  TGI: > 100000 nM
HOP-62 NSCLC
  GI50: 83 nM
  TGI: > 100000 nM
SW-620 colon
  GI50: < 10 nM
  TGI: > 100000 nM
SN12C renal
  GI50: 57.9 nM
  TGI: > 100000 nM
MDA-MB-435
  GI50: < 10 nM
UACC-257 melanoma
  GI50: > 100000 nM
  TGI: > 100000 nM
SF-539 CNS
  GI50: 13.4 nM
  TGI: 56 nM
NCI-H460 lung
  GI50: 38.8 nM
  TGI: > 100000 nM
M14 melanoma
  GI50: < 10 nM
  TGI: > 100000 nM
A498 renal
  GI50: 1970 nM
  TGI: 7180 nM
HL-60(TB) leukemia
  GI50: < 10 nM
  TGI: < 19.1 nM
MOLT-4 leukemia
  GI50: < 19.9 nM
  TGI: > 50200 nM
RPMI-8226 leukemia
  GI50: < 20.2 nM
  TGI: 27200 nM
SK-OV-3 ovarian
  GI50: 76.2 nM
  TGI: > 100000 nM
IGROV1 ovarian
  GI50: 312 nM
  TGI: > 100000 nM
OVCAR-3 ovarian
  GI50: 27.8 nM
  TGI: > 100000 nM
K-562 leukemia
  GI50: < 10 nM
  TGI: > 100000 nM
OVCAR-8 ovarian
  GI50: 44.1 nM
  TGI: > 100000 nM
U251 CNS
  GI50: 38.4 nM
  TGI: > 100000 nM
SNB-19 CNS
  GI50: 45.2 nM
  TGI: > 100000 nM
HCT-15 colon
  GI50: < 10 nM
  TGI: > 100000 nM
COLO 205 colon
  GI50: 1310 nM
  TGI: 23200 nM
HCC-2998 colon
  GI50: 46.2 nM
  TGI: > 100000 nM
SR leukemia
  GI50: < 10 nM
  TGI: > 100000 nM
OVCAR-5 ovarian
  GI50: 4490 nM
  TGI: > 100000 nM
HS 578T breast
  GI50: 18 nM
  TGI: > 100000 nM
SF-268 CNS
  GI50: 73.6 nM
  TGI: > 100000 nM
OVCAR-4 ovarian
  GI50: 122 nM
  TGI: > 100000 nM
SNB-75 CNS
  GI50: < 10 nM
  TGI: > 100000 nM
TK-10 renal
  GI50: 34100 nM
  TGI: > 100000 nM
CAKI-1 renal
  GI50: 140 nM
  TGI: > 100000 nM
RXF 393 renal
  GI50: 33.7 nM
  TGI: > 100000 nM
HOP-92 NSCLC
  GI50: 470 nM
  TGI: > 100000 nM
SK-MEL-28 melanoma
  GI50: 25100 nM
  TGI: > 100000 nM
PC-3 prostate
  GI50: < 10.6 nM
  TGI: > 100000 nM
NCI-H522 lung
  GI50: 16.9 nM
  TGI: > 100000 nM
